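Protocol summary: plate cells (96-well), add compound at 5 concentrations, incubate 48 h, interpolate endpoints linearly. GI50 is the concentration that inhibits growth by half.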 Calls of active or inactive are those of the source. No stated cut-off is given here; in the data, active = GI50 up to about 1.1 µM and inactive = higher.
Experiments:
Assay in all cases: DTP human tumour cell line panel, 48 h
[1] = test system: DMS-114
[2] = test system: M19-MEL
[3] = test system: DLD-1
[4] = test system: KM-20L2
[5] = test system: LXFL 529
[6] = test system: HOP-18
[7] = test system: SNB-78
[8] = test system: RXF 631
[9] = test system: XF498

Measured: GI50

COc1cc2c(cc1OC)c1c(OC)c(OC)cc3c1c1c2sc(=S)n1CC3
inactive: [1] 29.3 µM | [2] 34.4 µM | [3] 43 µM | [4] > 100 µM | [5] 35.1 µM | [6] > 100 µM | [7] > 100 µM

COC(=O)C(/C(=N\O)C(=O)Nc1ccc(Br)cc1)c1nc2ccccc2nc1O (stereo not given)
inactive: [1] 20.9 µM | [2] 26.1 µM | [3] 35.2 µM | [4] 44 µM | [8] 46.9 µM | [5] 28.6 µM | [6] 52.4 µM | [7] 96.6 µM

O=C(CC1(O)C(=O)Nc2c(Cl)cc(Cl)cc21)c1ccc(Br)cc1Br (stereo not given)
inactive: [1] 6.56 µM | [2] 9.04 µM | [3] 5.48 µM | [4] 18.6 µM | [8] 4.66 µM | [6] 14.4 µM | [7] 22.5 µM | [9] 11.6 µM

COc1ccc(/C=C2\CCC(C)(CN(C)C)C2=O)cc1OC (stereo not given)
inactive: [1] > 100 µM | [2] > 100 µM | [3] > 100 µM | [4] > 100 µM | [8] > 100 µM | [5] > 100 µM | [6] > 100 µM | [7] > 100 µM

CC(=O)Oc1cc2c(cc1OC(C)=O)C1(C)CCC2(C)c2cc(OC(C)=O)c(OC(C)=O)cc21
inactive: [2] 9.04 µM | [3] 17.7 µM | [4] 26 µM | [8] 23.2 µM | [5] 4.99 µM | [7] 16 µM | [9] 11.4 µM

CC(=O)OC1COC(N2C(=O)/C(=N\Nc3ccc([N+](=O)[O-])cc3)c3cc(Br)c([N+](=O)[O-])cc32)C(OC(C)=O)C1OC(C)=O (stereo not given)
inactive: [2] > 100 µM | [3] > 100 µM | [4] 32.1 µM | [8] 22.2 µM | [5] 21.8 µM | [6] > 100 µM | [7] 27.2 µM | [9] 32.8 µM

COc1cccc(/C=C2\CCC(CCN(C)C)(C3=CCCC3)C2=O)c1 (stereo not given)
inactive: [1] 14.3 µM | [2] 16.4 µM | [3] 17.8 µM | [8] 23.7 µM | [5] 15.5 µM | [6] 13.7 µM | [9] 17.7 µM

CN(N=O)C(=O)N(N)CCCCC(NC(=O)OCc1ccccc1)C(=O)OCc1ccccc1 (stereo not given)
inactive: [1] 44 µM | [2] 36.1 µM | [3] 58.7 µM | [4] > 100 µM | [5] 53.2 µM | [7] 31.9 µM | [9] 8.41 µM

CCC(=O)C12OC3OC(C)(C)OC3C1OC(C)(C)O2 (stereo not given)
inactive: [2] > 100 µM | [3] > 100 µM | [8] > 100 µM | [7] > 100 µM | [9] > 100 µM

CC(C)N1CN(C(C(=O)N[C@@H]2C(=O)N3C2SC(C)(C)C3C(=O)O)c2ccccc2)CSC1=S (stereo not given in full)
inactive: [1] 48.5 µM | [2] > 100 µM | [3] > 100 µM | [4] > 100 µM | [5] > 100 µM | [6] > 100 µM | [7] > 100 µM | [9] > 100 µM

COc1ccc(NC(=O)c2cc(OC)c(OC)c(OC)c2)cc1
inactive: [1] 25.7 µM | [2] 41.7 µM | [3] 50.6 µM | [4] 32.7 µM | [8] > 56.4 µM | [5] 51.8 µM | [6] > 64.6 µM | [7] 42.7 µM | [9] > 100 µM

C=C(C)C(=O)OC1CC2=CC(CC3(C)OC3C3OC(=O)C(=C)C13)OC2=O (stereo not given)
inactive: [1] 15.2 µM | [2] 6.62 µM | [3] 1.99 µM | [4] 15 µM | [8] 15.8 µM | [5] 2.51 µM | [6] 19.9 µM | [7] 12.1 µM

— ChEMBL document CHEMBL1201862, “PubChem BioAssay data set” (2004)
